Values quoted from earlier work in patent US20260345588A1, “COMBINED AGENTS WITH SYNERGISTIC EFFECTS AGAINST GLIOMAS” (Eberhard Karls Universitaet Tuebingen Medizinische Fakultaet, priority 2023, published 2026).

Assays:
EHMT1 = EHMT1 peptide
EHMT2 = EHMT2 peptide
Fit3 = conditions: in words
Pim1 = conditions: ATP competitive inhibitor; cell-free assay
Pim2 = conditions: Pim1 versus Pim2
haspin = conditions: in words
Pim3 = conditions: Pim1 versus Pim3
[1] = use of tideglusib
Alzheimer's disease = conditions: phase-IIa clinical trial; treatment discontinued

## CNCc1cnn(-c2cc(Nc3nc(C)cc(NC)n3)ccc2OC)c1 [EHMT 2-IN-1]
EHMT1
  IC50: < 100 nM
Cellular EHMT2
  IC50: < 100 nM
EHMT2
  IC50: < 100 nM

## CN1CCC(CNc2ccc3ncc(-c4cccc(OC(F)(F)F)c4)n3n2)CC1 [SGI-1776]
Fit3
  potency to Fit3: potent
Pim1
  IC50: […]
Pim2
  fold selective versus Pim2: […]
haspin
  potency to haspin: potent
Pim3
  fold selective versus Pim3: […]

## Cn1nnc2c(C(N)=O)ncn2c1=O [Temozolomide]
People receiving the solution for infusion
  injection-site reactions: injection-site reactions, such as pain, irritation, itching, warmth, swelling and redness, as well as bruising
People treated with temozolomide
  side effects: nausea (feeling sick), vomiting, constipation, loss of appetite, alopecia (hair loss), headache, fatigue (tired-ness), convulsions (fits), rash, neutropenia or lymphopenia (low white-blood-cell counts), and thrombocytopenia (low blood platelet counts)

## O=c1sn(-c2cccc3ccccc23)c(=O)n1Cc1ccccc1 [Tideglusib]
[1]
  adverse reactions: mild-moderate adverse reactions, which included transient increases in serum creatine kinase, ALT—or gGT—diarrhea, nausea, cough, fatigue, and headache
Alzheimer's disease
  clinical efficacy in Alzheimer's disease: lack of efficacy
